Experiments:
[1] = tested on: SH-SY5Y; assay: Neuroprotective activity against oxygen glucose-deprivation induced toxicity in human SH-SY5Y cells at 10 uM relative to control; type: functional
[2] = tested on: RAW264.7; assay: Antiinflammatory activity in mouse RAW264.7 cells assessed as inhibition of LPS-induced NO production at 10 uM relative to control; type: functional
[3] = tested on: SH-SY5Y; assay: Neuroprotective activity against oxygen glucose-deprivation induced toxicity in human SH-SY5Y cells at […] relative to control; type: functional
[4] = tested on: RAW264.7; assay: Cytotoxicity against mouse RAW264.7 cells assessed as decrease in cell viability by MTT assay; type: cell-based

Compound	Activity [1]	inhibition at 10 µM [2]	Activity [3]	Activity [4]
C[C@@H]1CC[C@@]2(OC1)O[C@H]1C[C@H]3[C@@H]4CCc5cc(OCc6cn(Cc7ccc(C#N)cc7)nn6)ccc5[C@H]4CC[C@]3(C)[C@H]1[C@@H]2C	57.6%	11.9%	–	–
COc1ccc2c(c1)c(CC(=O)O)c(C)n2C(=O)c1ccc(Cl)cc1 [INDOMETHACIN]	–	34.9%	–	–
CC(=O)N[C@@H](CS)C(=O)O [ACETYLCYSTEINE]	–	–	84.3%	–
C[C@@H]1CC[C@@]2(OC1)O[C@H]1C[C@H]3[C@@H]4CCc5cc(OCc6cn(-c7ccccc7)nn6)ccc5[C@H]4CC[C@]3(C)[C@H]1[C@@H]2C	12.1%	–	–	–
C[C@@H]1CC[C@@]2(OC1)O[C@H]1C[C@H]3[C@@H]4CCc5cc(OCc6cn(Cc7ccc(F)cc7)nn6)ccc5[C@H]4CC[C@]3(C)[C@H]1[C@@H]2C	50.7%	19.7%	–	–
CCCn1cc(COc2ccc3c(c2)CC[C@@H]2[C@@H]3CC[C@]3(C)[C@@H]4[C@H](C[C@@H]23)O[C@]2(CC[C@@H](C)CO2)[C@H]4C)nn1	73.9%	–	–	–
C[C@@H]1CC[C@@]2(OC1)O[C@H]1C[C@H]3[C@@H]4CCc5cc(OCc6cn(Cc7cccc(F)c7)nn6)ccc5[C@H]4CC[C@]3(C)[C@H]1[C@@H]2C	51.6%	30.6%	–	–
C[C@@H]1CC[C@@]2(OC1)O[C@H]1C[C@H]3[C@@H]4CCc5cc(OCc6cn(Cc7ccc(C(F)(F)F)cc7)nn6)ccc5[C@H]4CC[C@]3(C)[C@H]1[C@@H]2C	66.4%	9.5%	–	–
COc1ccc(-n2cc(COc3ccc4c(c3)CC[C@@H]3[C@@H]4CC[C@]4(C)[C@@H]5[C@H](C[C@@H]34)O[C@]3(CC[C@@H](C)CO3)[C@H]5C)nn2)cc1	40.1%	9.9%	–	–
C[C@@H]1CC[C@@]2(OC1)O[C@H]1C[C@H]3[C@@H]4CCc5cc(OCc6cn(Cc7ccccc7)nn6)ccc5[C@H]4CC[C@]3(C)[C@H]1[C@@H]2C	35.5%	23.5%	–	–
C[C@@H]1CC[C@@]2(OC1)O[C@H]1C[C@H]3[C@@H]4CCc5cc(OCc6cn(-c7ccccc7C#N)nn6)ccc5[C@H]4CC[C@]3(C)[C@H]1[C@@H]2C	81.2%	–	–	Toxic
C[C@@H]1CC[C@@]2(OC1)O[C@H]1C[C@H]3[C@@H]4CC=C5C[C@@H](O)CC[C@]5(C)[C@H]4CC[C@]3(C)[C@H]1[C@@H]2C [DISOGENIN]	3.5%	5.9%	–	–
Cc1ccc(-n2cc(COc3ccc4c(c3)CC[C@@H]3[C@@H]4CC[C@]4(C)[C@@H]5[C@H](C[C@@H]34)O[C@]3(CC[C@@H](C)CO3)[C@H]5C)nn2)cc1	3.3%	–	–	–
C[C@@H]1CC[C@@]2(OC1)O[C@H]1C[C@H]3[C@@H]4CCc5cc(OCc6cn(-c7cc(F)cc(F)c7)nn6)ccc5[C@H]4CC[C@]3(C)[C@H]1[C@@H]2C	71.4%	–	–	–
COc1ccc(Cn2cc(COc3ccc4c(c3)CC[C@@H]3[C@@H]4CC[C@]4(C)[C@@H]5[C@H](C[C@@H]34)O[C@]3(CC[C@@H](C)CO3)[C@H]5C)nn2)cc1	73.9%	40.4%	–	–
Cc1ccc(Cn2cc(COc3ccc4c(c3)CC[C@@H]3[C@@H]4CC[C@]4(C)[C@@H]5[C@H](C[C@@H]34)O[C@]3(CC[C@@H](C)CO3)[C@H]5C)nn2)cc1	34.1%	35.6%	–	–
C[C@@H]1CC[C@@]2(OC1)O[C@H]1C[C@H]3[C@@H]4CCc5cc(OCc6cn(Cc7ccccc7F)nn6)ccc5[C@H]4CC[C@]3(C)[C@H]1[C@@H]2C	12.1%	14.2%	–	–
C[C@@H]1CC[C@@]2(OC1)O[C@H]1C[C@H]3[C@@H]4CCc5cc(OCc6cn(Cc7cc(F)c(F)cc7F)nn6)ccc5[C@H]4CC[C@]3(C)[C@H]1[C@@H]2C	16.5%	–	–	–

— ChEMBL document CHEMBL4811264, “Design and synthesis of novel diosgenin-triazole hybrids targeting inflammation as potential neuroprotective agents” (Bioorg Med Chem Lett, 2021)
